Columns and labels:
[1] = system: resistant Candida auris strains; details: with fluconazole, voriconazole, itraconazole, cited from earlier work
[2] = system: fungi; experiment: fungicidal activity of NK1-antagonists alone; type: cell-based; details: NK1-antagonist alone, at higher concentrations

Row | SMILES | synergistic enhancement of triazole antifungal activity ([1]; C. auris) | restoration of triazole susceptibility ([1]; several resistant Candida auris strains) | independent fungicidal activity [2]
1 | C[C@@H](O[C@H]1OCCN(Cc2nc(=O)[nH][nH]2)[C@H]1c1ccc(F)cc1)c1cc(C(F)(F)F)cc(C(F)(F)F)c1 [aprepitant, 5-[[(2R,3S)-2-[(1R)-1-[3,5-bis(trifluoromethyl)phenyl]ethoxy]-3-(4-fluorophenyl)-4-morpholinyl]methyl]-1,2-dihydro-3H-1,2,4-triazol-3-one] | synergistically enhance the activity | restore fluconazole-, voriconazole-, and itraconazole-susceptibility | 
2 | C[C@@H](OC[C@@]1(c2ccccc2)CC[C@]2(CCC(=O)N2)CN1)c1cc(C(F)(F)F)cc(C(F)(F)F)c1 [rolapitant, (5S,8S)-8-[[(1R)-1-[3,5-bis(trifluoromethyl)phenyl]ethoxy]methyl]-8-phenyl-1,9-diazaspiro[4. 5]decan-2-one] |  |  | fungicidal activity
3 | Cc1ccccc1-c1cc(N2CCN(C)CC2)ncc1N(C)C(=O)C(C)(C)c1cc(C(F)(F)F)cc(C(F)(F)F)c1 [netupitant, 2-[3,5-bis(trifluoromethyl)phenyl]-N, 2-dimethyl-N-[4-(2-methylphenyl)-6-(4-methylpiperazin-1-yl)pyridin-3-yl]propanamide] |  |  | fungicidal activity
